Species on record: Rattus norvegicus
Assay: Open TG-GATES - Regimen: Single
Assay type: toxicity, organism-based, Sprague-Dawley
Design: regimen Single, gender Male, age 6 weeks
Conditions: in vivo, po, route gavage; for APTT / Bas / Eos / Fbg / Hb / Ht / Lym / MCHC / MCV / Mono / Neu / PT / Plat / RBC / Ret / WBC: tissue Blood; for KIDNEY_L / KIDNEY_R / KIDNEY_TOTAL: tissue Kidney; for LIVER: tissue Liver; for ALP / ALT / AST / BUN / CRE / Ca / Cl / DBIL / GLC / IP / K / LDH / Na / PL / RALB / TBIL / TC / TG / TP / gamma-GTP: tissue Plasma
[1] = 0 mg/kg, 3 h, dose level Control
[2] = 0 mg/kg, 6 h, dose level Control
[3] = 0 mg/kg, 9 h, dose level Control
[4] = 0 mg/kg, 24 h, dose level Control

## CN(C)C(=N)N=C(N)N [METFORMIN]
[1]
  TERMINAL_BW: 200.9 g
  APTT: 16.9 s
  Bas: 0%
  Eos: 0.6%
  Fbg: 245.6 mg/dL
  Hb: 13.1 g/dL
  Ht: 39.6%
  Lym: 76.8%
  MCHC: 33%
  MCV: 65.3 fL
  Mono: 3.4%
  Neu: 18.4%
  PT: 12.3 s
  Plat: 111.6 x10_4/uL
  RBC: 606.6 x10_4/ul
  Ret: 10.1%
  WBC: 96.1 x10_2/uL
  KIDNEY_L: 0.9 g
  KIDNEY_R: 0.9 g
  KIDNEY_TOTAL: 1.8 g
  LIVER: 8.5 g
  ALP: 1612 IU/L
  ALT: 43.6 IU/L
  AST: 74.2 IU/L
  BUN: 9.2 mg/dL
  CRE: 0.2 mg/dL
  Ca: 11.1 mg/dL
  Cl: 104 meq/L
  DBIL: 0.016 mg/dL
  GLC: 179.8 mg/dL
  IP: 9.2 mg/dL
  K: 4.2 meq/L
  LDH: 58.2 IU/L
  Na: 140 meq/L
  PL: 136.6 mg/dL
  RALB: 2.5 g/dL
  TBIL: 0.052 mg/dL
  TC: 87 mg/dL
  TG: 42.2 mg/dL
  TP: 5.2 g/dL
  gamma-GTP: 1.4 IU/L
[2]
  TERMINAL_BW: 202.6 g
  APTT: 16.1 s
  Bas: 0%
  Eos: 0.8%
  Fbg: 261 mg/dL
  Hb: 12.9 g/dL
  Ht: 38.9%
  Lym: 77.2%
  MCV: 62.9 fL
  Mono: 3%
  Neu: 18.4%
  PT: 12.2 s
  Plat: 113.4 x10_4/uL
  RBC: 618.4 x10_4/ul
  Ret: 9.2%
  WBC: 92.1 x10_2/uL
  KIDNEY_L: 0.9 g
  KIDNEY_R: 0.9 g
  KIDNEY_TOTAL: 1.8 g
  LIVER: 8 g
  ALP: 1285 IU/L
  ALT: 44.8 IU/L
  AST: 78.8 IU/L
  BUN: 7.6 mg/dL
  CRE: 0.1 mg/dL
  Ca: 10.7 mg/dL
  Cl: 104.8 meq/L
  DBIL: 0.006 mg/dL
  GLC: 161 mg/dL
  IP: 9.9 mg/dL
  K: 4.1 meq/L
  LDH: 64 IU/L
  Na: 139.4 meq/L
  PL: 121 mg/dL
  RALB: 2.4 g/dL
  TBIL: 0.046 mg/dL
  TG: 27.2 mg/dL
  TP: 5 g/dL
  gamma-GTP: 1 IU/L
[3]
  TERMINAL_BW: 201 g
  APTT: 16 s
  Bas: 0%
  Eos: 1%
  Fbg: 244.8 mg/dL
  Hb: 12.4 g/dL
  Lym: 73.8%
  MCV: 64.5 fL
  Mono: 3.2%
  Neu: 21.4%
  PT: 12.2 s
  Plat: 107.6 x10_4/uL
  RBC: 577.8 x10_4/ul
  Ret: 10%
  WBC: 75.6 x10_2/uL
  KIDNEY_L: 0.9 g
  KIDNEY_R: 0.9 g
  KIDNEY_TOTAL: 1.7 g
  LIVER: 7.7 g
  ALP: 1175 IU/L
  ALT: 41.6 IU/L
  AST: 69.6 IU/L
  BUN: 9 mg/dL
  CRE: 0.1 mg/dL
  Ca: 10.6 mg/dL
  Cl: 105 meq/L
  DBIL: 0.008 mg/dL
  GLC: 164.8 mg/dL
  IP: 10.5 mg/dL
  K: 4 meq/L
  LDH: 49 IU/L
  Na: 141 meq/L
  PL: 136.4 mg/dL
  RALB: 2.5 g/dL
  TBIL: 0.042 mg/dL
  TC: 87 mg/dL
  TG: 35.6 mg/dL
  TP: 5.1 g/dL
  gamma-GTP: 1 IU/L
[4]
  TERMINAL_BW: 207.9 g
  APTT: 16.4 s
  Bas: 0%
  Eos: 1%
  Fbg: 230.4 mg/dL
  Hb: 13 g/dL
  Ht: 38.7%
  Lym: 77%
  MCHC: 33.5%
  Mono: 3.8%
  Neu: 17.8%
  PT: 12.5 s
  Plat: 115 x10_4/uL
  RBC: 595.2 x10_4/ul
  Ret: 8.9%
  WBC: 101.4 x10_2/uL
  KIDNEY_L: 0.9 g
  KIDNEY_R: 0.9 g
  KIDNEY_TOTAL: 1.8 g
  LIVER: 10 g
  ALP: 1728.6 IU/L
  ALT: 49.8 IU/L
  AST: 78.2 IU/L
  BUN: 16 mg/dL
  CRE: 0.2 mg/dL
  Ca: 11.4 mg/dL
  Cl: 103.8 meq/L
  DBIL: 0.012 mg/dL
  GLC: 173 mg/dL
  IP: 8.6 mg/dL
  K: 3.9 meq/L
  LDH: 63.6 IU/L
  Na: 141.2 meq/L
  PL: 139 mg/dL
  RALB: 2.6 g/dL
  TBIL: 0.038 mg/dL
  TG: 89.6 mg/dL
  TP: 5.5 g/dL
  gamma-GTP: 1 IU/L
100 mg/kg, 3 h, dose level Low
  TERMINAL_BW: 201 g

Reference: ChEMBL document CHEMBL3885861, “Open TG-GATES”
